Measured values from ChEMBL document CHEMBL1141445, “Rhizochalins C and D from the sponge Rhizochalina incrustata. A rare threo-sphingolipid and a facile method for determination of the carbonyl position in alpha,omega-bifunctionalized ketosphingolipids” (2007).

system: Nakaseomyces glabratus; test: Antifungal activity against fluconazole-resistant Candida glabrata; type: functional; settings: read-out: ED50 (the source's name)

| Compound | EC50 |
| --- | --- |
| C[C@@H](N)[C@H](O)CCCCCCCCC(=O)CCCCCCCCCCCCCC[C@@H](O[C@@H]1O[C@H](CO)[C@H](O)[C@H](O)[C@H]1O)[C@@H](C)N [RHIZOCHALIN D] | > 150 µM |
| C[C@@H](N)[C@H](O)CCCCCCCC(=O)CCCCCCCCCCCCCC[C@@H](O[C@@H]1O[C@H](CO)[C@H](O)[C@H](O)[C@H]1O)[C@@H](C)N [RHIZOCHALIN] | 40 µM |
| C[C@@H](N)[C@H](O)CCCCCCCC(=O)CCCCCCCCCCCCCC[C@@H](O[C@@H]1O[C@H](CO)[C@H](O)[C@H](O)[C@H]1O)[C@H](N)CO [RHIZOCHALIN C] | > 150 µM |
| CC1[C@@H](CO)O[C@@H](O[C@H](CCCCCCCC(=O)CCCCCCCCCCCCCC[C@@H](O)[C@@H](C)N)[C@@H](N)CO)[C@H](O)[C@H]1O (some centres undefined) [OCEANAPISIDE] | 40 µM |
